Source: patent publication US20070258912A1, “Use of Fluorescent Whitening Agents as Antimicrobials” (priority 2004, published 2007)
Where two headings read alike, the source gives them in different places.

What was measured:
Type in all cases: cell-based
Corynebacterium xerosis [1] = experiment: MIC in the agar incorporation test
Procedure: (§1) Determination of Minimum Inhibitory Concentration (MIC Values) in the Agar Incorporation Test
(§2) 1% stock solutions of the substances are prepared in an appropriate solvent and diluted in serial dilutions 1:2 (to yield end concentrations in the agar of 500-1.9 ppm). 0.3 ml of each dilution step is mixed with 15 ml of nutrient medium while the latter is still liquid. After the nutrient medium has solidified, 10 μl of each test strain in 0.85% NaCl solution are spotted onto the agar medium.
(§3) The plates are incubated at 37° C. for 24 hours and then the highest dilution (lowest concentration) of the test substance at which growth is no longer observable is determined.
(§4) Test Organisms: Staphylococcus aureus ATCC 6583 Staphylococcus epidermidis ATCC 12228 Corynebacterium xerosis ATCC 373 Propionibacterium acnes ATCC Escherichia coli ATCC 10536 Salmonella choleraesuis ATCC Klebsiella pneumoniae ATCC *Candida albicans ATCC 10231
(§5) *Aspergillus niger ATCC 6275

Escherichia coli [2] = experiment: MIC in the agar incorporation test; details: ATCC10536, agar incorporation, Mueller Hinton agar, 24 hours at 37° C., ATCC 10536, read-out: MIC Escherichia coli
Procedure: as §1, §2, §3, §4, §5

Klebsiella pneumoniae = experiment: MIC in the agar incorporation test; details: Mueller Hinton agar, 24 hours at 37° C.
Procedure: as §1, §2, §3, §4, §5

Propionibacterium acnes = experiment: MIC in the agar incorporation test; details: Cutibacterium acnes, read-out: MIC Propionibacterium acnes
Procedure: as §1, §2, §3, §4, §5

Salmonella choleraesuis = experiment: MIC in the agar incorporation test; details: Salmonella enterica, Mueller Hinton agar, 24 hours at 37° C.
Procedure: as §1, §2, §3, §4, §5

Staphylococcus aureus [3] = experiment: MIC in the agar incorporation test
Procedure: as §1, §2, §3, §4, §5

Staphylococcus epidermis = experiment: MIC in the agar incorporation test
Procedure: as §1, §2, §3, §4, §5

[4] = system: Corynebacterium minutissimum; experiment: MIC in the agar incorporation test; details: read-out: MIC Corynebacterium minutissimum
[5] = system: Actinobacillus actinomycetemcomitans; experiment: MIC against oral microorganisms via broth dilution; details: Aggregatibacter actinomycetemcomitans, ATCC43718; broth dilution 0.94-15 ppm, 24 h aerobically with 10% CO2, ATCC 43718
Procedure: (§6) Determination of the Minimum Inhibition Concentration (MIC Value) Against Different Oral Microorganisms Via Broth Dilution
(§7) 1500 ppm stock solutions of the substances are prepared in ethanol and pipetted into the growth medium to yield concentrations between 0.94 and 15 ppm. Bacteria are taken from blood agar plates with cotton swabs and adjusted in the appropriate growth medium to yield an optical density corresponding to McFarland 0.5. This suspension is directly used in the case of F. nucleatum and P. nigrescens. For the other strains, the suspension is diluted 1:20. 0.1 ml of these bacterial suspensions are added to 2 ml of the substance solutions. After the incubation time, the tubes are assessed for growth (turbidity).
(§8) Test Organisms: *Actinobacillus actinomycetemcomitans ATCC 43718 *Stretococcus gordonii ATCC 10558 *Streptococcus mutans ATCC 33402 Actinomyces viscosus ATCC 43146 Fusobacterium nucleatum subsp. polymorphum ATCC 10953 Porphyromonas gingivalis ATCC 33277
(§9) Prevotella nigrescens ATCC 33563

Actinomyces viscosus [6] = experiment: MIC against oral microorganisms via broth dilution
Procedure: as §6, §7, §8, §9

[7] = system: Fusobacterium nucleatum subsp. polymorphum; experiment: MIC against oral microorganisms via broth dilution; details: ATCC10953, broth dilution 0.94-15 ppm, 7-10 days at 37° C. anaerobically, ATCC 10953, read-out: MIC Fusobacterium nucleatum subsp. polymorphum
Procedure: as §6, §7, §8, §9

Porphyromnas gingivalis = experiment: MIC against oral microorganisms via broth dilution; details: read-out: MIC Porphyromnas gingivalis
Procedure: as §6, §7, §8, §9

Prevotella nigrescens = experiment: MIC against oral microorganisms via broth dilution
Procedure: as §6, §7, §8, §9

Streptococcus gordonii = experiment: MIC against oral microorganisms via broth dilution
Procedure: as §6, §7, §8, §9

Streptococcus mutans = experiment: MIC against oral microorganisms via broth dilution
Procedure: as §6, §7, §8, §9

Actinomyces viscosus [8] = experiment: Microbicidal activity (suspension test, plate count); details: 120 ppm, ATCC 43146; for Microbicidal activity Actinomyces viscosus 120 ppm/5 min: 5 min contact at 22° C.; for Microbicidal activity Actinomyces viscosus 120 ppm/30 min: 30 min contact at 22° C.
Procedure: (§10) Determination of Microbicidal Activity
(§11) 1 g stock solution with an appropriate concentration of test products are mixed with 8 g water and then inoculated with 1 ml of the selected test organisms. After a given contact period, aliquots are taken, inactivated and diluted. The number of surviving bacteria per ml incubation assay is determined by plate count. Proper inactivation by the inactivating medium used was checked each time.
(§12) Diluent: tryptone water for microorganisms
(§13) • (0.1% tryptone (Oxoid), 0.85% NaCl, deion. water) • deion. water for test substances • inactivating medium for detection of surviving microorganisms Growth medium: casein soybean peptone agar Inactivating Medium: tryptic soy broth special • (10% w/w Tween 80, 3% w/w Lecithine, 0.1% w/w L-Histidine, • 0.055% w/w Sodium thiosulfate) Test organisms: Staphylococcus aureus ATCC 6538 • Escherichia coli ATCC 10536 • Actinomyces viscosus ATCC 43146 • Corynebacterium xerosis ATCC 373 Test concentration: 120 ppm and 1200 ppm Contact times: 5 and 30 minutes at 22° C.
(§14) Incubation time: 24 h at 37° C.

Corynebacterium xerosis [9] = experiment: as above; details: 120 ppm, ATCC 373; for Microbicidal activity Corynebacterium xerosis 120 ppm/5 min: 5 min contact at 22° C.; for Microbicidal activity Corynebacterium xerosis 120 ppm/30 min: 30 min contact at 22° C.
Procedure: as §10, §11, §12, §13, §14

Escherichia coli [10] = experiment: as above; details: 120 ppm, ATCC 10536; for Microbicidal activity Escherichia coli 120 ppm/5 min: 5 min contact at 22° C.; for Microbicidal activity Escherichia coli 120 ppm/30 min: 30 min contact at 22° C.
Procedure: as §10, §11, §12, §13, §14

Staphylococcus aureus [11] = experiment: as above; details: 120 ppm, ATCC 6538; for Microbicidal activity Staphylococcus aureus 120 ppm/5 min: 5 min contact at 22° C.; for Microbicidal activity Staphylococcus aureus 120 ppm/30 min: 30 min contact at 22° C.
Procedure: as §10, §11, §12, §13, §14

[12] = system: Actinomyces viscosus ATCC 43146; experiment: Substantivity on hydroxyapatite and growth inhibition; details: 500 ppm ethanolic solution; discs pretreated with artificial saliva; 6 and 24 hours at 37° C.; vs untreated control
Procedure: Hydroxyapatite discs are incubated in artificial saliva (German Dental Magazine DZZ 5/2002) for 4 hrs under stirring, rinsed in NaCl, dried over night, and then incubated in ethanolic solutions of the test substances. Then all treated discs are put in 12 well Nucleon surface titre plates (one disc per well), and Caso Broth inoculated with the test strain. The titre plates are incubated at 37° C., samples are taken after 6 and 24 hrs and the colony count is determined by plate count.

[13] = ATCC373, agar incorporation, Mueller Hinton agar, 24 hours at 37° C., ATCC 373, read-out: MIC Corynebacterium xerosis
[14] = agar incorporation, Mueller Hinton agar, 24 hours at 37° C.
[15] = ATCC6583, agar incorporation, Mueller Hinton agar, 24 hours at 37° C., ATCC 6583, read-out: MIC Staphylococcus aureus
[16] = ATCC12228, agar incorporation, Mueller Hinton agar, 24 hours at 37° C., ATCC 12228, read-out: MIC Staphylococcus epidermis
[17] = ATCC43146, broth dilution 0.94-15 ppm, 7-10 days at 37° C. anaerobically, ATCC 43146, read-out: MIC Actinomyces viscosus
[18] = broth dilution 0.94-15 ppm, Columbia bouillon, 7-10 days at 37° C. anaerobically, ATCC 33277
[19] = ATCC33563, broth dilution 0.94-15 ppm, Columbia bouillon, 7-10 days at 37° C. anaerobically, ATCC 33563, read-out: MIC Prevotella nigrescens
[20] = ATCC10558, broth dilution 0.94-15 ppm, 24 h aerobically with 10% CO2, ATCC 10558, read-out: MIC Streptococcus gordonii
[21] = ATCC33402, broth dilution 0.94-15 ppm, 24 h aerobically with 10% CO2, ATCC 33402, read-out: MIC Streptococcus mutans

| MIC (Corynebacterium xerosis [1]; [13]) [µg/mL] | MIC (Escherichia coli [2]) [µg/mL] | MIC (Klebsiella pneumoniae) [µg/mL] | MIC (Propionibacterium acnes; [14]) [µg/mL] | MIC (Staphylococcus aureus [3]; [15]) [µg/mL] | MIC (Staphylococcus epidermis; [16]) [µg/mL] | MIC [4, 14] [µg/mL] | MIC [5] [µg/mL] | MIC (Actinomyces viscosus [6]; [17]) [µg/mL] | MIC [7] [µg/mL] | MIC (Porphyromnas gingivalis; [18]) [µg/mL] | MIC (Prevotella nigrescens; [19]) [µg/mL] | MIC (Streptococcus gordonii; [20]) [µg/mL] | MIC (Streptococcus mutans; [21]) [µg/mL] | Structure (SMILES) | MIC (Salmonella choleraesuis) [µg/mL] | Microbicidal activity Actinomyces viscosus 120 ppm/5 min (Actinomyces viscosus [8]) [log reductions] | Microbicidal activity Actinomyces viscosus 120 ppm/30 min (Actinomyces viscosus [8]) [log reductions] | Microbicidal activity Corynebacterium xerosis 120 ppm/5 min (Corynebacterium xerosis [9]) [log reductions] | Microbicidal activity Corynebacterium xerosis 120 ppm/30 min (Corynebacterium xerosis [9]) [log reductions] | Microbicidal activity Escherichia coli 120 ppm/5 min (Escherichia coli [10]) [log reduction] | further results |
| --- | --- | --- | --- | --- | --- | --- | --- | --- | --- | --- | --- | --- | --- | --- | --- | --- | --- | --- | --- | --- | --- |
| 3.1 | 200 | 25 | 3.1 | 3.1 | 3.1 | 6.3 | 7.5 | 3.8 | 3.8 | 1.9 | 1.9 | 7.5 | 3.8 | Cc1ccc(/C=C/c2ccc(/C=C/c3cccc(OCCCN(C)C)c3)cc2)c(OCCN(C)C)c1 [formula 29] | 200 | 2.5 | 5 | 5 | 5 | 5 | Microbicidal activity Escherichia coli 120 ppm/30 min (Escherichia coli [10]): 5 log reduction; Microbicidal activity Staphylococcus aureus 120 ppm/5 min (Staphylococcus aureus [11]): 3 log reduction; Microbicidal activity Staphylococcus aureus 120 ppm/30 min (Staphylococcus aureus [11]): 5 log reduction |
| 3.1 | 200 | 25 | 12.5 | 6.3 | 6.3 | 6.3 | 15 | 3.8 | 3.8 | 3.8 | 1.9 | 7.5 | 3.8 | CN(C)CCCOc1ccccc1/C=C/c1ccc(/C=C/c2ccccc2OCCCN(C)C)cc1 [formula 26] | 200 | 0 | 3.7 | 2.9 | 5 | 4.5 | Microbicidal activity Escherichia coli 120 ppm/30 min (Escherichia coli [10]): 5 log reduction; Microbicidal activity Staphylococcus aureus 120 ppm/5 min (Staphylococcus aureus [11]): 0 log reduction; Microbicidal activity Staphylococcus aureus 120 ppm/30 min (Staphylococcus aureus [11]): 4 log reduction |
| – | – | – | – | – | – | – | – | – | – | – | – | – | – | CC[N+](C)(C)CCCOc1ccccc1/C=C/c1ccc(-c2ccc(/C=C/c3ccccc3OCCC[N+](C)(C)CC)cc2)cc1 [formula 33] | – | – | – | – | – | – | MIC (Corynebacterium xerosis [1]; ATCC373, 24 h, read-out: MIC Corynebacterium xerosis): 31.3 µg/mL; MIC (Propionibacterium acnes; 24 h): 3.9 µg/mL; MIC (Staphylococcus aureus [3]; ATCC6583, 24 h, read-out: MIC Staphylococcus aureus): 3.9 µg/mL; MIC (Staphylococcus epidermis; ATCC12228, 24 h, read-out: MIC Staphylococcus epidermis): 3.9 µg/mL; MIC ([4]; 24 h): 7.8 µg/mL; MIC (Actinomyces viscosus [6]; ATCC43146, read-out: MIC Actinomyces viscosus): 3.8 µg/mL; MIC (Porphyromnas gingivalis): 15 µg/mL; MIC (Prevotella nigrescens; ATCC33563, read-out: MIC Prevotella nigrescens): 3.75 µg/mL; MIC (Streptococcus gordonii; ATCC10558, 24 h, read-out: MIC Streptococcus gordonii): 3.75 µg/mL; MIC (Streptococcus mutans; ATCC33402, 24 h, read-out: MIC Streptococcus mutans): 1.88 µg/mL; Growth inhibition of Actinomyces viscosus after adsorption on hydroxyapatite discs [12]: growth inhibition |
| 3.8 | – | 120 | 3.8 | 7.5 | 7.5 | 3.8 | 15 | 3.75 | 15 | 1.9 | 1.9 | 7.5 | 7.5 | CCN(CC)CCOc1ccccc1/C=C/c1ccc(/C=C/c2ccccc2OCCN(CC)CC)cc1 [formula 24] | – | – | – | – | – | – | Growth inhibition of Actinomyces viscosus after adsorption on hydroxyapatite discs [12]: growth inhibition |
